{
  "source": "patent US20220089662A1",
  "about": "“PREPRATION METHOD AND APPLICATION OF ANTI-INFLAMMATORY KIDNEY PROTECTING CLAM PEPTIDE” (Chenland Nutritionals Inc., priority 2020, published 2022)",
  "key": {"[1]": {"tested_on": "spontaneously hypertensive rats (SHR)", "assay": "Anti-inflammatory test after administration in spontaneously hypertensive rats (serum IL-8, TNF-α, hs-CRP)", "format": "in vivo, rat", "description": "Anti-inflammatory test after administration in spontaneously hypertensive rats is as follows.\n(§1) Spontaneously hypertensive rats were purchased from Beijing Weitong Lihua Experimental Animal Technology Co., Ltd.\n(§2) Forty male spontaneously hypertensive rats (SHR), aged about 12 weeks and weighing about 270 G, were adaptively fed for one week. […] The rats in the AC group were given captopril 10 mg/kg by gavage, at the same time, the MC group was given the same volume of distilled water. The drug was administered once a day for 4 weeks. Serum IL-8, TNF-α and hs-CRP were measured, and the data were analyzed by SPSS software."}, "[2]": {"tested_on": "spontaneously hypertensive rats (SHR)", "assay": "Protection of renal function in spontaneously hypertensive rats (SCr, SUA, BUN)", "format": "in vivo, rat", "settings": "SHR serum, AC: captopril 10 mg/kg by gavage once a day for 4 weeks", "description": "as §1\nas §2, with “gavage, At” for “gavage, at”, “weeks. SCr, SUA” for “weeks. Serum IL-8, TNF-α”, “and BUN” for “and hs-CRP”"}, "[3]": {"settings": "AC: captopril 10 mg/kg by gavage once a day for 4 weeks"}},
  "data": [
    {"compound": "C[C@H](CS)C(=O)N1CCC[C@H]1C(=O)O", "note": "[captopril]", "values": [
      {"measurement": "TNF-α", "setting": "[1]; [3]", "result": "87.41 ± 19.19", "unit": "pg/mL"},
      {"measurement": "hs-CRP", "setting": "[1]; [3]", "result": "1.53 ± 0.41", "unit": "µg/L"},
      {"measurement": "serum IL-8 level", "setting": "[1]; positive drug group (captopril 10 mg/kg), 4 weeks", "result": "122 ± 12.15", "unit": "pg/mL"},
      {"measurement": "BUN", "setting": "[2]", "result": "10.56 ± 3.17", "unit": "mmol/L"},
      {"measurement": "SCr", "setting": "[2]", "result": "421.50 ± 101.20", "unit": "µmol/L"},
      {"measurement": "SUA", "setting": "[2]", "result": "211.60 ± 39.89", "unit": "mg/L"}
    ]}
  ]
}
